In patent US20250051277A1, “DELIVERY OF THERAPEUTIC ALKALOID COMPOUNDS” (Sensorium Therapeutics, Inc., priority 2021, published 2025):
Read-outs that look alike come from different tables or passages of the source.

Columns and labels:
[1] = assay type: physicochemical; conditions: SGF with pepsin, pH 1.5, 37° C., 0.5 mM
[2] = assay type: physicochemical; conditions: DI water, 25° C., 0.5 mM
[3] = 5 μM
[4] = 5 μM; remark: listed apart in the source
[5] = 10 μM
Experimental: (§1) 50 μL aliquots of positive controls and test compounds spiked into rat or human plasma (n=2) were added to a pre-warmed plate (37° C.) and shaken at 50 rpm. At each respective time point, the reaction was stopped by adding 500 μL of acetonitrile containing internal standards (100 nM aprozolam, 200 nM caffeine, 100 nM tolbutamide). All samples were vortexed for 10 minutes, followed by centrifugation at 3,220 g for 30 minutes to precipitate proteins. 100 μL of the supernatant is transferred to a new plate. The supernatant will be diluted with ultrapure water according to the LC-MS signal response and peak shape.

[6] = 10 μM; remark: listed apart in the source
Experimental: as §1

[7] = Plasma Stability Assay of Example A3, mouse plasma; conditions: 5 μM, 37° C., % of prodrug compound remaining
[8] = Plasma Stability Assay of Example A3, human plasma; conditions: 5 μM, 37° C., % of prodrug compound remaining

COc1ccc([C@@]23CCC(=NNC(=O)Nc4ccc(C(=O)O)cc4)C[C@@H]2N(C)CC3)cc1OC (racemic) [Compound 259, 4-[[[(3aS,7aS)-3a-(3,4-dimethoxyphenyl)-1-methyl-2,3,4,5,7,7a-hexahydroindol-6-ylidene]amino]carbamoylamino]benzoic acid]
Condition 1 Conversion (%) ([1]; time 1 min): 3.6%
Condition 1 Conversion (%) ([1]; time 5 min): 4.1%
Condition 1 Conversion (%) ([1]; time 30 min): 16.5%
Condition 1 Conversion (%) ([1]; time 1 h): 25%
Condition 1 Conversion (%) ([1]; time 4 h): 29.5%
Condition 1 Conversion (%) ([1]; time 24 h): 31.9%
Condition 2 Conversion (%) ([2]; time 1 min): 0%
Condition 2 Conversion (%) ([2]; time 5 min): 0%
Condition 2 Conversion (%) ([2]; time 30 min): 0%
Condition 2 Conversion (%) ([2]; time 1 h): 2%
Condition 2 Conversion (%) ([2]; time 4 h): 4.3%
Condition 2 Conversion (%) ([2]; time 24 h): 7.8%
Mouse Plasma Prodrug (%) ([3]; 0 min): 100%
Mouse Plasma Prodrug (%) ([3]; 15 min): 86.2%
Mouse Plasma Prodrug (%) ([3]; 30 min): 81.0%
Mouse Plasma Prodrug (%) ([3]; 60 min): 67.6%
Mouse Plasma Prodrug (%) ([3]; 120 min): 38.7%
Mouse Plasma Prodrug (%) ([3]; 240 min): 19.8%
Human Plasma Prodrug (%) ([4]; 0 min): 100%
Human Plasma Prodrug (%) ([4]; 15 min): >99%
Human Plasma Prodrug (%) ([4]; 30 min): 96.6%
Human Plasma Prodrug (%) ([4]; 60 min): 85.7%
Human Plasma Prodrug (%) ([4]; 120 min): 70.0%
Human Plasma Prodrug (%) ([4]; 240 min): 54.3%

COc1ccc([C@@]23CCC(OC(=O)c4cccc(C)c4)=C[C@@H]2N(C)CC3)cc1OC [Compound 374, (3aS,7aS)-3a-(3,4-dimethoxyphenyl)-1-methyl-2,3,3a,4,5,7a-hexahydro-1H-indol-6-yl3-methylbenzoate]
Human Plasma Compound 001 (%) ([4]; 0 min): 0.00%
Human Plasma Compound 001 (%) ([4]; 30 min): 3.19%
Human Plasma Compound 001 (%) ([4]; 60 min): 5.92%
Human Plasma Compound 001 (%) ([4]; 120 min): 9.01%
Human Plasma Compound 001 (%) ([4]; 240 min): 7.54%
Prodrug (%) remaining, Rat Plasma ([5]; 0 h): 100.0%
Prodrug (%) remaining, Rat Plasma ([5]; 10 min): 9.7%
Prodrug (%) remaining, Rat Plasma ([5]; 0.5 h): 0.3%
Prodrug (%) remaining, Rat Plasma ([5]; 1 h): 0.1%
Prodrug (%) remaining, Rat Plasma ([5]; 2 h): 0.0%
Prodrug (%) remaining, Rat Plasma ([5]; 4 h): 0.0%
Prodrug (%) remaining, Human Plasma ([6]; 0 h): 100.0%
Prodrug (%) remaining, Human Plasma ([6]; 10 min): >99%
Prodrug (%) remaining, Human Plasma ([6]; 0.5 h): >99%
Prodrug (%) remaining, Human Plasma ([6]; 1 h): >99%
Prodrug (%) remaining, Human Plasma ([6]; 2 h): >99%
Prodrug (%) remaining, Human Plasma ([6]; 4 h): 95.4%
Mouse Plasma Prodrug (%) ([7]; 0 min): 100%
Mouse Plasma Prodrug (%) ([7]; 15 min): 33%
Mouse Plasma Prodrug (%) ([7]; 30 min): 4%
Mouse Plasma Prodrug (%) ([7]; 60 min): 0%
Mouse Plasma Prodrug (%) ([7]; 120 min): 0%
Mouse Plasma Prodrug (%) ([7]; 240 min): 0%
Human Plasma Prodrug (%) ([8]; 0 min): 100%
Human Plasma Prodrug (%) ([8]; 15 min): 98%
Human Plasma Prodrug (%) ([8]; 30 min): 88%
Human Plasma Prodrug (%) ([8]; 60 min): 84%
Human Plasma Prodrug (%) ([8]; 120 min): 62%
Human Plasma Prodrug (%) ([8]; 240 min): 11%

COc1ccc([C@@]23CCC(OC(=O)c4ccc(C(C)C)cc4)=C[C@@H]2N(C)CC3)cc1OC [Compound 371, (3aS,7aS)-3a-(3,4-dimethoxyphenyl)-1-methyl-2,3,3a,4,5,7a-hexahydro-1H-indol-6-yl4-isopropylbenzoate]
Mouse Plasma Compound 001 (%) ([3]; 0 min): 28.4%
Mouse Plasma Compound 001 (%) ([3]; 15 min): 31.54%
Mouse Plasma Compound 001 (%) ([3]; 30 min): 29.63%
Mouse Plasma Compound 001 (%) ([3]; 60 min): 30.25%
Mouse Plasma Compound 001 (%) ([3]; 120 min): 26.59%
Mouse Plasma Compound 001 (%) ([3]; 240 min): 19.82%
Human Plasma Compound 001 (%) ([4]; 0 min): 0.00%
Human Plasma Compound 001 (%) ([4]; 60 min): 2.67%
Human Plasma Compound 001 (%) ([4]; 120 min): 5.08%
Human Plasma Compound 001 (%) ([4]; 240 min): 3.85%
Prodrug (%) remaining, Rat Plasma ([5]; 0 h): 100.0%
Prodrug (%) remaining, Rat Plasma ([5]; 10 min): 5.0%
Prodrug (%) remaining, Rat Plasma ([5]; 0.5 h): 0.2%
Prodrug (%) remaining, Rat Plasma ([5]; 1 h): 0.1%
Prodrug (%) remaining, Rat Plasma ([5]; 2 h): 0.0%
Prodrug (%) remaining, Rat Plasma ([5]; 4 h): 0.0%
Prodrug (%) remaining, Human Plasma ([6]; 0 h): 100.0%
Prodrug (%) remaining, Human Plasma ([6]; 10 min): >99%
Prodrug (%) remaining, Human Plasma ([6]; 0.5 h): 94.4%
Prodrug (%) remaining, Human Plasma ([6]; 1 h): 90.7%
Prodrug (%) remaining, Human Plasma ([6]; 2 h): 91.3%
Prodrug (%) remaining, Human Plasma ([6]; 4 h): 78.0%
Mouse Plasma Prodrug (%) ([7]; 0 min): 100%
Mouse Plasma Prodrug (%) ([7]; 15 min): 10%
Mouse Plasma Prodrug (%) ([7]; 30 min): 0%
Mouse Plasma Prodrug (%) ([7]; 60 min): 0%
Mouse Plasma Prodrug (%) ([7]; 120 min): 0%
Mouse Plasma Prodrug (%) ([7]; 240 min): 0%
Human Plasma Prodrug (%) ([8]; 0 min): 100%
Human Plasma Prodrug (%) ([8]; 15 min): 99%
Human Plasma Prodrug (%) ([8]; 30 min): 92%
Human Plasma Prodrug (%) ([8]; 60 min): 87%
Human Plasma Prodrug (%) ([8]; 120 min): 78%
Human Plasma Prodrug (%) ([8]; 240 min): 27%

COc1ccc([C@@]23CCC(OC(=O)c4cccc(C)c4C)=C[C@@H]2N(C)CC3)cc1OC [Compound 373, (3aS,7aS)-3a-(3,4-dimethoxyphenyl)-1-methyl-2,3,3a,4,5,7a-hexahydro-1H-indol-6-yl2,3-dimethylbenzoate]
Human Plasma Compound 001 (%) ([4]; 0 min): 0%
Prodrug (%) remaining, Rat Plasma ([5]; 0 h): 100.0%
Prodrug (%) remaining, Rat Plasma ([5]; 10 min): 81.0%
Prodrug (%) remaining, Rat Plasma ([5]; 0.5 h): 58.4%
Prodrug (%) remaining, Rat Plasma ([5]; 1 h): 26.8%
Prodrug (%) remaining, Rat Plasma ([5]; 2 h): 5.2%
Prodrug (%) remaining, Rat Plasma ([5]; 4 h): 1.3%
Prodrug (%) remaining, Human Plasma ([6]; 0 h): 100.0%
Prodrug (%) remaining, Human Plasma ([6]; 10 min): 96.3%
Prodrug (%) remaining, Human Plasma ([6]; 0.5 h): >99%
Prodrug (%) remaining, Human Plasma ([6]; 1 h): 94.8%
Prodrug (%) remaining, Human Plasma ([6]; 2 h): 89.9%
Prodrug (%) remaining, Human Plasma ([6]; 4 h): 96.3%
Mouse Plasma Prodrug (%) ([7]; 0 min): 100%
Mouse Plasma Prodrug (%) ([7]; 15 min): 82%
Mouse Plasma Prodrug (%) ([7]; 30 min): 64%
Mouse Plasma Prodrug (%) ([7]; 60 min): 41%
Mouse Plasma Prodrug (%) ([7]; 120 min): 12%
Mouse Plasma Prodrug (%) ([7]; 240 min): 1%
Human Plasma Prodrug (%) ([8]; 0 min): 100%
Human Plasma Prodrug (%) ([8]; 15 min): 93.9%
Human Plasma Prodrug (%) ([8]; 30 min): 96.5%
Human Plasma Prodrug (%) ([8]; 60 min): 81.4%
Human Plasma Prodrug (%) ([8]; 120 min): 66.1%
Human Plasma Prodrug (%) ([8]; 240 min): 17.2%

COc1ccc([C@@]23CCC(OC(=O)c4c(C)cccc4C)=C[C@@H]2N(C)CC3)cc1OC [Compound 372, (3aS,7aS)-3a-(3,4-dimethoxyphenyl)-1-methyl-2,3,3a,4,5,7a-hexahydro-1H-indol-6-yl2,6-dimethylbenzoate]
Mouse Plasma Compound 001 (%) ([3]; 0 min): 0%
Human Plasma Compound 001 (%) ([4]; 0 min): 0.00%
Prodrug (%) remaining, Rat Plasma ([5]; 0 h): 100.0%
Prodrug (%) remaining, Rat Plasma ([5]; 10 min): >99%
Prodrug (%) remaining, Rat Plasma ([5]; 0.5 h): >99%
Prodrug (%) remaining, Rat Plasma ([5]; 1 h): >99%
Prodrug (%) remaining, Rat Plasma ([5]; 2 h): 98.4%
Prodrug (%) remaining, Rat Plasma ([5]; 4 h): >99%
Prodrug (%) remaining, Human Plasma ([6]; 0 h): 100.0%
Prodrug (%) remaining, Human Plasma ([6]; 10 min): >99%
Prodrug (%) remaining, Human Plasma ([6]; 0.5 h): >99%
Prodrug (%) remaining, Human Plasma ([6]; 1 h): >99%
Prodrug (%) remaining, Human Plasma ([6]; 2 h): >99%
Prodrug (%) remaining, Human Plasma ([6]; 4 h): >99%
Mouse Plasma Prodrug (%) ([7]; 0 min): 100%
Mouse Plasma Prodrug (%) ([7]; 15 min): 92%
Mouse Plasma Prodrug (%) ([7]; 30 min): 91%
Mouse Plasma Prodrug (%) ([7]; 60 min): 88%
Mouse Plasma Prodrug (%) ([7]; 120 min): 73%
Mouse Plasma Prodrug (%) ([7]; 240 min): 64%
Human Plasma Prodrug (%) ([8]; 0 min): 100%
Human Plasma Prodrug (%) ([8]; 15 min): 97%
Human Plasma Prodrug (%) ([8]; 30 min): 99%
Human Plasma Prodrug (%) ([8]; 60 min): 94%
Human Plasma Prodrug (%) ([8]; 120 min): 81%
Human Plasma Prodrug (%) ([8]; 240 min): 38%

COc1ccc([C@@]23CCC(OC(=O)c4ccccc4C)=C[C@@H]2N(C)CC3)cc1OC [Compound 298, [(3aS,7aS)-3a-(3,4-dimethoxyphenyl)-1-methyl-3,4,5,7a-tetrahydro-2H-indol-6-yl]2-methylbenzoate]
Condition 1 Conversion (%) ([1]; time 1 min): 0%
Condition 1 Conversion (%) ([1]; time 5 min): 0%
Condition 1 Conversion (%) ([1]; time 30 min): 0%
Condition 1 Conversion (%) ([1]; time 1 h): 0%
Condition 1 Conversion (%) ([1]; time 4 h): 0%
Condition 1 Conversion (%) ([1]; time 24 h): 0%
Condition 2 Conversion (%) ([2]; time 1 min): 0%
Condition 2 Conversion (%) ([2]; time 5 min): 0%
Condition 2 Conversion (%) ([2]; time 30 min): 0%
Condition 2 Conversion (%) ([2]; time 1 h): 0%
Condition 2 Conversion (%) ([2]; time 4 h): 0%
Condition 2 Conversion (%) ([2]; time 24 h): 0%
Mouse Plasma Compound 001 (%) ([3]; 15 min): 34.0%
Mouse Plasma Compound 001 (%) ([3]; 30 min): 44.5%
Mouse Plasma Compound 001 (%) ([3]; 60 min): 60.1%
Mouse Plasma Compound 001 (%) ([3]; 120 min): 64.3%
Mouse Plasma Compound 001 (%) ([3]; 240 min): 64.8%
Human Plasma Prodrug (%) ([4]; 0 min): 100.0%
Human Plasma Prodrug (%) ([4]; 15 min): >99%
Human Plasma Prodrug (%) ([4]; 60 min): 97.5%
Human Plasma Prodrug (%) ([4]; 240 min): 90.9%
